Experimental findings from patent US10434170B2, “Immunoregulatory vaccine” (S-TARGET THERAPEUTICS GMBH, priority 2012, dated 2019) are described below.

The assay concerns autologous little gastrin (G17RM). In words: Cynomolgus monkeys immunized, serum IgG (MSD multiplex ELISA) against autologous little gastrin. In kind it is in vivo, rhesus and cynomolgus monkey. The conditions noted are these: 6 Cynomolgus monkeys, immunized d0, d14, d28; serum d0-d56. The source says:
Time curve IgG anti G17 induction, after three injections with the vaccine (TYG100_2RM) on d0, d14 and d28. • A significant IgG induction was seen against the ScFV-coil1 and G17RM and G17H. No response was seen against a control peptide of similar molecular weight or when the animals were immunized with G17RM_2 without the presence of warhead.
6 Cynomolgus monkeys were immunized with TYG100_2RM and 6 were immunized with G17RM_2-coil on d0, d14 and d28. On d0, d14, d28, 42 and d56 serum was analyzed for the presence of IgG antibodies against autologous little gastrin (G17RM), little gastrin from humans (G17H), an irrelevant control peptide of similar MW as gastrin (control peptide) or against warhead (ScFV-coil1) using the multiplex ELISA system of Meso Scale Discovery (MSD) according to the MSD manual. […] The response against G17RM after three immunizations was 75% of the response against ScFV-coil1. This is remarkable since G17RM is a 100% autologous protein of only ˜1.2 kDa whereas ScFV-coil1 is a 100% allogeneic protein of >30 kDa. The anti G17RM antibodies cross reacted strongly with G17H. There was no response against G17RM when the G17RM_2-coil peptide was used without the warhead.
(In an ELISA, binding on a coated surface is turned into a signal by an enzyme label.)

Where no end group is shown, it is not given here.

Take “G17RM_2-coil: SEQ ID 103: two rhesus monkey gastrin peptides of SEQ ID 99, branched linker and pepK coil (EGPWMEEEEAAYGGGK(EGPWMEEEEAAYGGG)GGSGGKVSALKEKVSALKEKVSALKEKVSALKEKVSALKE)”: the “IgG response to G17RM” value is reported as “no response”.
